How the values were obtained:
[1] = cited from earlier work; for anxiety in the elevated plus-maze and social interaction tests: blockade of amygdala NPY Y1R, low stress conditions, Kask et al., 1998b, Sajdyk, 1999
WistarF/Han (WF) rats [2] = assay: Social interaction (SI) test with Y1R antagonist pre-treatment (Example 4); type: in vivo; details: Fig. 10
Description: (§1) Animals. Male WistarF/Han (WF) rats (Central Animal Laboratory, Hannover Medical School, Hannover, Germany, see http://www.mh-hannover.de/institut/tierlabor/wf.htm for details), weighing 330±31 g±SD, were housed in a sound-proof, temperature controlled (24.0±0.5°C) room under specific pathogen free conditions with a 12/12h dark/light cycle (lights on at 07.00 with illumination level of 80 Lux). Food (Altromin lab chow pellets) and tap water were available ad libitum. Under ketamine/xylasine (100/5 mg/kg, i.p.) anesthesia, the rats were fixed in a Kopf stereotaxic frame and implanted with cannulae (Plastic One, Inc., Roanoke, VA, USA) above the lateral ventricle. All research and animal care procedures were approved by the Lower Saxony district government (Hannover, Germany) and followed principles described in the European Community's Council Directive of 24 November 1986 (86/609/EEC).
Surgery and i.c.v. application. […]
Animals were randomly divided into eight experimental groups (n=6-8/group), which completed one SI test of anxiety: (1) aCSF+aCSF+aCSF; (2) BIBP+aCSF+aCSF; (3) aCSF+isoleucyl thiazolidine+aCSF; (4) BIBP+isoleucyl thiazolidine+aCSF; (5) aCSF+aCSF+NPY; (6) BIBP+aCSF+NPY; (7) aCSF+P32/89+NPY; (8) BIBP+isoleucyl thiazolidine+NPY. […] The time spent in active social interaction (SI-time), 1h, and 12h food-intake were measured. […]
Social interaction (SI) test. […] Behavior was monitored using a video camera placed above the field inside the testing/isolation box. The SI behavior of both rats was recorded on-line from a monitor placed outside on top of the box. The following parameters were scored by an observer (HPN) unaware of the substrain of rats: duration of time spent in sniffing, following, crawling under and over other rats, but not passive body contact (resting, sleeping). […]
(§2) Statistical analysis. Data obtained from the measures SI time and 1h food intake were analyzed by one-way (factor: "treatment") ANOVA. […]

WistarF/Han (WF) rats [3] = assay: 1h food intake with Y1R antagonist pre-treatment (Example 4); type: in vivo; details: i.c.v., BIBP3226 100nmol pre-treatment; isoleucyl thiazolidine 50nmol; NPY 0.8nmol; Fig. 11
Description: as §1
(§3) Surgery and i.c.v. application. For surgery, rats were anesthetized and prepared with i.c.v. cannulae (coordinates: A:-0.7mm caudal, L:1.4mm lateral to bregma; and V3.2mm ventral to the skull surface; tooth bar +3.0 above ear bars) using standard stereotaxic procedures as described in detail elsewhere (von Hörsten et al., 1998a,b,c). After a 7-day recovery period, successful ventricle cannulation was confirmed by an angiotensin drinking response (von Hörsten et al., 1998a). Rats showing a positive drinking response (n=56) were then habituated to experimental handling by daily sham injections for seven days.
Animals were randomly divided into eight experimental groups (n=6-8/group), which completed one SI test of anxiety: (1) aCSF+aCSF+aCSF; (2) BIBP+aCSF+aCSF; (3) aCSF+isoleucyl thiazolidine+aCSF; (4) BIBP+isoleucyl thiazolidine+aCSF; (5) aCSF+aCSF+NPY; (6) BIBP+aCSF+NPY; (7) aCSF+P32/89+NPY; (8) BIBP+isoleucyl thiazolidine+NPY. Animals in each group were treated in an identical way in each phase, receiving i.c.v. injections -60mins and -55min before behavioral testing. Experiments spanned two nights with groups counterbalances on both dark cycles. The injection cannula was attached to a Hamilton microsyringe with approximately 30cm of polyethylene tubing and all compounds were infused in a total volume of 5.0µl at a rate of 5.0 µl/min using a TSE multichannel infusion pump (Bad Homburg, Germany). The time spent in active social interaction (SI-time), 1h, and 12h food-intake were measured.
Peptides and Antagonist. Rat neuropeptide Y1-36 was obtained from Polypeptide Laboratories (Wolfenbüttel, Germany). The NPY Y1 receptor antagonist BIBP3226 was purchased from American Peptide Company, Sunnyvale, CA, USA (Cat#:60-1-22B). […]
as §2

rats = details: administered into the dorsal periaqueductal gray matter; Kask et al., 1998d; cited from earlier work
WistarF/Han (WF) rats [4] = assay: 1h and 12h food intake after combined i.c.v. treatment (Example 3); type: in vivo; details: single agents or combination, isoleucyl thiazolidine 5pmol-500nmol, NPY 50pmol-1.6nmol, Fig. 8
Description: as §1, with “330-370g,” for “330±31 g±SD,”
as §3, with “(n=59)” for “(n=56)”
Animals were randomly divided into two sets of four experimental groups (n=5-6/group), which completed different consecutive SI test of anxiety. […] The time spent in active social interaction (SI-time), 1h and 12h food-intake were measured. […]
Statistical analysis. Data from repeated observations (food intake) were analyzed by two-way analyses of variance for repeated measures (ANOVA) (factors: "substrain" and "food intake" as repeated measure). Data obtained from simple measures such as DP IV activity or SI time were analyzed by one-way (factor: "substrain") ANOVA. […]

[5] = test system: olfactory bulbectomized rats; details: 7-day i.c.v. administration; Song et al., 1996; cited from earlier work
[6] = i.c.v. injection, Kask et al. (1996)

Compound	anxiety in the elevated plus-maze and social interaction tests [1]	effect on isoleucyl thiazolidine-induced potentiation of the NPY mediated anxiolytic-like effect on SI behavior (WistarF/Han (WF) rats [2]; i.c.v. pre-treatment, BIBP3226 100nmol)	1h feeding under Y1R blockade (WistarF/Han (WF) rats [3])	effect in the elevated plus-maze test [1, 6]	locomotor effect [1, 6]	time spent in active social interaction (rats)	amount of food eaten within 1h (WistarF/Han (WF) rats [4])	anxiolytic-like effect in the SI test under Y1 receptor blockade (WistarF/Han (WF) rats [2]; i.c.v., BIBP3226 100nmol pre-treatment, isoleucyl thiazolidine 50nmol, NPY 0.8nmol)	behavioral and neurotransmitters deficits [5]
NC(=O)NCc1ccc(CNC(=O)[C@@H](CCCN=C(N)N)NC(=O)C(c2ccccc2)c2ccccc2)cc1 [BIB03304]	did not increase anxiety								
NC(N)=NCCC[C@@H](NC(=O)C(c1ccccc1)c1ccccc1)C(=O)NCc1ccc(O)cc1 [BIBP3226]	did not increase anxiety	can block	only partly affected	anxiogenic-like effects	without any locomotor deficit	decreased			
NPY: Rat neuropeptide Y1-36 obtained from Polypeptide Laboratories			only partly mediated by the Y1R				"u-shaped" dose-dependent feeding effect	antagonized	attenuated

Source: patent EP1891948A1, “Treatment of neurological and neuropsychological disorders” (Probiodrug AG, priority 2000, dated 2002)
